# Patent publication US5486526A, “Histamine H3 -receptor antagonists and therapeutic uses thereof” (The University of Toledo, priority 1993, dated 1996)
# Like-named read-outs stand apart in the source and are kept apart here. Ends that are not written are not given here.
# Experiments:
# [1] = target: Adenylate Cyclase Forskolin; settings: reference compound; cited from earlier work
# ANF (rat) = settings: reference compound; cited from earlier work
# Benzodiazephine = settings: reference compound; cited from earlier work
# histamine H3 receptor = target: T1, histamine H3 receptor (Rattus norvegicus, UniProt Q9QYN8); assay: Inhibition of [^3 H]-N-alpha-methylhistamine binding to rat brain membranes; settings: for binding to the histamine H3 -receptor (in words): discussion of Table I
# T1 construct: from tissue
# T1 sequence (Q9QYN8 whole entry): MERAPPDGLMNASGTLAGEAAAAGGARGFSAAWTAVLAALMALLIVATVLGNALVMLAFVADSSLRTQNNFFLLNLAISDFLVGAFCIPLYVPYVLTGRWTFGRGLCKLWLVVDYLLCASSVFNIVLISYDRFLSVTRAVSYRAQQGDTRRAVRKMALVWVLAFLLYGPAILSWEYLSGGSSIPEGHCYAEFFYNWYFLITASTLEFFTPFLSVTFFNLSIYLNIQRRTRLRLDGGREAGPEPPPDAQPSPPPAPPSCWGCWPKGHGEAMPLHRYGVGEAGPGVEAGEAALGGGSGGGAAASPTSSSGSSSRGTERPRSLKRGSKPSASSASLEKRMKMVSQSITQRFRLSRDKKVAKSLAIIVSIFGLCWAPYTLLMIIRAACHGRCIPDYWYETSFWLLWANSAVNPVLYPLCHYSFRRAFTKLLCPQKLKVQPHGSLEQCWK
# Method: A series of compounds were prepared and tested for their histamine H3 receptor antagonist activity. The antagonist activity of the compounds was detected by observing inhibition of (^3 H)-N-(alpha)methylhistamine activity on rat brain membranes.
# The various compounds were tested for the ability to bind to the histamine H3 receptor. A binding assay in a rat brain membrane preparation, based on inhibition of binding of [^3 H]-N-alpha-methylhistamine using excess unlabeled alpha-methylhistamine to account for nonspecific binding, was developed.
# Serotonin 1 = settings: reference compound; cited from earlier work
# Serotonin 2 = settings: reference compound; cited from earlier work
# PCP = settings: reference compound; cited from earlier work
# Neurotensin = settings: reference compound; cited from earlier work
# Potassium = settings: reference compound; cited from earlier work
# NGF = settings: reference compound; cited from earlier work
# NMDA = settings: reference compound; cited from earlier work
# Bombesin = settings: reference compound; cited from earlier work
# Dopamine 2 = settings: reference compound; cited from earlier work
# EGF = settings: reference compound; cited from earlier work
# Quisqualate = settings: reference compound; cited from earlier work
# Calcium = settings: reference compound; cited from earlier work
# NPY = settings: reference compound; cited from earlier work
# Adenosine = settings: reference compound; cited from earlier work
# Somatostatin = settings: reference compound; cited from earlier work
# Male albino CF-1 mice = assay: Behavioral effects in mice: sleep induced by (R)α-methylhistamine; format: in vivo, mouse; settings: i.p.
# Method: The overall strategy to show central nervous system antagonist activity was to challenge effects of the agonist (R)α-methylhistamine. Therefore, the first objective was to establish a dose response curve for behavioral effects of (R)α-methylhistamine. Male albino CF-1 mice weighing 20-30 g were used. Saline or (R)α-methylhistamine in saline was injected i.p. in a volume ≤0.4 ml. […] Animals were scored for the presence (1) or absence (0) of the behavior and the results were reported as the accumulated score for a 30 minute period (maximum score=9).
# To assess the effects of antagonists, they were administered with the (R)α-methylhistamine in saline.
# VIP = settings: reference compound; cited from earlier work
# Arg-Vasopressin V1 = settings: reference compound; cited from earlier work
# Angiotensin = settings: reference compound; cited from earlier work
# Substance K = settings: reference compound; cited from earlier work
# MK-801 = settings: reference compound; cited from earlier work
# Substance P = settings: reference compound; cited from earlier work
# [2] = ^3 HN^α -methylhistamine as radioligand, rat brain membranes, first part of Table I, read-out: IC50
# [3] = ^3 HN^α -methylhistamine as radioligand, rat brain membranes, second part of Table I, read-out: IC50
compound,measurement,setting,value
C=C[C@@]1(C)CC(=O)[C@]2(O)[C@@]3(C)[C@@H](O)CCC(C)(C)[C@@H]3[C@H](O)[C@H](OC(C)=O)[C@@]2(C)O1 [Forskolin],Ki,[1],29.4 nM
ANP: Reference Compound,Ki,ANF (rat),0.15 nM
O=C1CN=C(c2ccccc2Cl)c2cc([N+](=O)[O-])ccc2N1 [Clonazepam],Ki,Benzodiazephine,3.4 nM
O=C(CCC(c1ccccc1)c1ccccc1)N1CCC(c2c[nH]cn2)CC1 [Compound 53],IC50,histamine H3 receptor; [2],124 nM
O=C(CCCc1ccccc1)N1CCC(c2c[nH]cn2)CC1 [Compound 5],IC50,histamine H3 receptor; [2],262 ± 9 nM
NCCc1c[nH]c2ccc(O)cc12 [Serotonin],Ki,Serotonin 1,4.6 nM
same,Ki,Serotonin 2,531 nM
c1ccc(C2(N3CCCCC3)CCCCC2)cc1 [PCP],Ki,PCP,62.3 nM
Neurotensin,Ki,Neurotensin,1.23 nM
"Apamin: Reference Compound (CNCKAPETALCARRCQQH; ends and bridges not checked; cysteine pairing not given here; UniProt P01500 28-45, looked up)",Ki,Potassium,0.05 nM
NGF: Reference Compound,Ki,NGF,0.8 nM
CN[C@H](CC(=O)O)C(=O)O [NMDA],Ki,NMDA,359 nM
O=C(CC1CCCCC1)N1CCC(c2c[nH]cn2)CC1 [Compound 3],IC50,histamine H3 receptor,19 ± 12 nM
"CNCCc1c[nH]cn1 [[^3 H]-N-alpha-methylhistamine, reference compound]",Kd,histamine H3 receptor,0.19 nM
Tyr4-Bombesin,Ki,Bombesin,0.55 nM
N#CN=C(Oc1ccccc1)N1CCC(c2c[nH]cn2)CC1 [Compound 47],IC50,histamine H3 receptor; [2],231 nM
same,binding to the histamine H3 -receptor (in words),histamine H3 receptor,ineffective at binding to the H3 -receptor
O=C(CCCN1CCC2(CC1)C(=O)NCN2c1ccccc1)c1ccc(F)cc1 [Spiperone],Ki,Dopamine 2,0.08 nM
O=C(C(c1ccccc1)C1CCCCC1)N1CCC(c2c[nH]cn2)CC1 (centres unmarked) [Compound 11],IC50,histamine H3 receptor; [3],260 ± 38 nM
EGF: Reference Compound,Ki,EGF,0.24 nM
O=C(c1ccccc1)N1CCC(c2c[nH]cn2)CC1 [Compound 13],IC50,histamine H3 receptor; [2],151 ± 44 nM
N[C@@H](Cn1oc(=O)[nH]c1=O)C(=O)O [Quisqualic Acid],Ki,Quisqualate,11.8 nM
COC(=O)C1=C(C)NC(C)=C(C(=O)OC)C1c1ccccc1[N+](=O)[O-] [Nifedipine],Ki,Calcium,1.6 nM
Neuropeptide Y: Reference Compound,Ki,NPY,0.5 nM
CCNC(=O)[C@H]1O[C@@H](n2cnc3c(N)ncnc32)[C@H](O)[C@@H]1O [NECA],Ki,Adenosine,120 nM
N#CN=C(NC1CCCCC1)N1CCC(c2c[nH]cn2)CC1 [Compound 48],binding to the histamine H3 -receptor (in words),histamine H3 receptor,ineffective at binding to the H3 -receptor
Somatostatin: Reference Compound,Ki,Somatostatin,0.03 nM
O=C(CCc1ccccc1)N1CCC(c2c[nH]cn2)CC1 [Compound 7],IC50,histamine H3 receptor; [2],34.1 ± 3.6 nM
C[C@@H](N)Cc1c[nH]cn1 [(R)α-methylhistamine],sleeping,"Male albino CF-1 mice; 15 to 35 mg/kg, one hour after injection",dose-dependent (range of 15 to 35 mg/kg) increase in sleeping one hour after injection
same,sleeping,Male albino CF-1 mice; 30 minutes after injection,evident at 30 minutes after injection
O=C(/C=C/c1ccccc1)N1CCC(c2c[nH]cn2)CC1 [Compound 10],IC50,histamine H3 receptor; [3],570 ± 172 nM
O=C(CCC1CCCCC1)N1CCC(c2c[nH]cn2)CC1 [Compound 6],IC50,histamine H3 receptor; [2],34 ± 1.4 nM
VIP: Reference Compound,Ki,VIP,1.53 nM
CC(C)(C)OC(=O)N1CCC(c2c[nH]cn2)CC1 [Compound 2],IC50,histamine H3 receptor,243.5 ± 1.9 nM
arg-Vasopressin: Reference Compound,Ki,Arg-Vasopressin V1,4.9 nM
O=C(CC(c1ccccc1)c1ccccc1)N1CCC(c2c[nH]cn2)CC1 [Compound 52],IC50,histamine H3 receptor; [2],93.1 nM
Angiotensin II: Reference Compound,Ki,Angiotensin,0.2 nM
N#CN=C(Nc1ccc(-c2c[nH]cn2)cc1)NC1CCCCC1 [Compound 50],binding to the histamine H3 -receptor (in words),histamine H3 receptor,ineffective at binding to the H3 -receptor
"CNC(=S)NCCCCc1cnc[nH]1 [Burimamide, reference compound]",IC50,histamine H3 receptor; [2],156 ± 57 nM
O=C(CC=C(c1ccccc1)c1ccccc1)N1CCC(c2c[nH]cn2)CC1 [Compound 54],IC50,histamine H3 receptor; [2],1000 nM
Neurokinin A: Reference Compound,Ki,Substance K,2.75 nM
C[C@]12N[C@H](Cc3ccccc31)c1ccccc12 [MK801],Ki,MK-801,4.3 nM
O=C(CCCC1CCCCC1)N1CCC(c2c[nH]cn2)CC1 [Compound 12],IC50,histamine H3 receptor; [2],41.4 ± 9 nM
Substance P: Reference Compound,Ki,Substance P,0.08 nM
